Results taken from publication PMC2930046 (Archives of biochemistry and biophysics, 2010).
Several values for one entry are separate records, joined by “and”; a condition that tells them apart may be missing. Equal values may be shown once. Peptide text beside a SMILES is read from it. * marks the point of attachment. AMC = Cc1cc(=O)oc2cc(N*)ccc12; Cbz = O=C(OCc1ccccc1)*

Columns and labels:
[1] = molecular target: mammalian proteasome; conditions: cited from earlier work
[2] = system: Mtb proteasome; conditions: cited from earlier work
[3] = system: cancer cells; conditions: cited from earlier work
[4] = molecular target: T1, Mtb20SOG (Mycobacterium tuberculosis, UniProt P9WHT9); assay: Kinetics of inhibition of Mtb20SOG, progress curves of Suc-LLVY-AMC cleavage; format: biochemical
[5] = molecular target: human 20S β5 (Homo sapiens, UniProt P28074); format: biochemical
[6] = molecular target: T1, Mtb20SOG; format: biochemical; conditions: retest of screening hits
[7] = system: fibroblasts and glial-derived cells; conditions: through inhibition of proteasome activity; cited from earlier work
[8] = system: proteasome β5; conditions: read-out: IC50 for β5; cited from earlier work

T1 sequence (P9WHT9 58-291): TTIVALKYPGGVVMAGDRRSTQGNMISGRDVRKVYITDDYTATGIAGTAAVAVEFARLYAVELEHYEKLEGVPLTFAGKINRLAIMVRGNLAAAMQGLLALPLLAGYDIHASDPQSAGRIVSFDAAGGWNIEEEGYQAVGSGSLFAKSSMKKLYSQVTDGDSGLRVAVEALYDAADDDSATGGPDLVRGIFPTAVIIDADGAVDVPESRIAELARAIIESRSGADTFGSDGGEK

Question: For `CC(C)C[C@@H](C=O)NC(=O)[C@H](CC(C)C)NC(=O)[C@H](CC(C)C)NC(=O)OCc1ccccc1` [Z-Leu-Leu-Leu-Cho] (Cbz-Leu-Leu-Leu-aldehyde), which Ki [1] is on record?
Answer: 4 nM

Question: For `CC(=O)NC(CC(N)=O)C(=O)NC(CCC(N)=O)C(=O)NC(CC(C)C)C(=O)Nc1ccc2c(C)cc(=O)oc2c1` (stereo not drawn) [Ac-NQL-AMC] (Ac-Asn-Gln-Leu-{AMC}; configuration not given here), which “hydrolysis by the Mtb proteasome” value [2] is on record?
Answer: could not be hydrolyzed

Question: What does the source list for `CCCCCCCCC[C@@H](O)CC(=O)N[C@@H](CC(N)=O)C(=O)N[C@@H](CCC(N)=O)C(=O)N[C@H](C=O)CC(C)C` [compound 1, (R)-3-hydroxydodecanoyl-Asn-Gln-Leu-CHO]?
Answer: cytotoxicity to cancer cells [3]: cytotoxic to cancer cells; Ki ([4]; Ki calculated from koff/kon, koff/kon): 7.4 nM; Ki ([4]; Ki, Morrison fit of vs/vo vs [1], corrected by (1+[S]/KM), one-step slow binding): 6.8 nM; Ki ([4]; Kiapp, apparent, Morrison equation 3, uncorrected): 11.1 nM; koff ([4]; read-out: k4 (koff)): 0.00096 s⁻¹; kon ([4]; read-out: kon^app (slope of the fit, apparent)): 79500 M⁻¹ s⁻¹; advantage on binding affinity of EI* over EI (ΔG = −RTlnK) [5]: 1.5 kcal/mol; k5/k6 ratio [5]: 11; Ki ([5]; Ki, initial EI complex, corrected by equation 4, two-step mechanism): 11.6 nM and 11.5 nM; distribution of enzyme into EI* ([5]; from k5/k6 ratio): 91%; inhibition of Mtb20SOG on retest with re-supplied compound [6]: dose-dependent inhibition; release of nerve growth factor [7]: induce the release of nerve growth factor; IC50 [8]: 9.6 nM
